Measurements taken from publication PMC11091072, “Targeting bacterial nickel transport with aspergillomarasmine A suppresses virulence-associated Ni-dependent enzymes” (Nature Communications, 2024).
Values joined by “and” are separate entries in the source; they are usually repeats but may differ in a detail not shown here. Equal entries are not always repeated. Where two headings read alike, the source gives them in different places.

Assays:
[1] = test system: [NiFe]-hydrogenase (Hyd-3); assay: Whole-cell [NiFe] hydrogenase assay (benzyl viologen reduction); assay type: cell-based, Klebsiella pneumoniae
Excerpt: We reasoned that disruption of Ni^2+ uptake and homeostasis should also perturb the activity of other Ni-dependent enzymes. To examine this possibility, we tested the effects of free AMA and Zn-AMA on Ni-dependent hydrogen metabolism in bacteria. […] K. pneumoniae produces a single [NiFe]-hydrogenase (Hyd-3) as part of the H2-evolving formate hydrogenlyase (FHL) complex and is encoded by the hyc operon (Fig S8)[21]. […] To measure [NiFe]-hydrogenase-catalyzed H2 […], benzyl viologen was used as an artificial electron acceptor, as previously described. Although Hyd-3 is involved in the evolution of H2, previous work in E. coli has shown that it is responsible for 90% of the hydrogen-dependent benzyl viologen reduction in crude extracts and whole-cell assays[41]–[44].
The whole-cell hydrogenase activity in K. pneumoniae was based on a modified method described by Lacasse et al.[41] […] The cell suspension was diluted 1/100 in LB supplemented with 0.8% glucose, 10 mM MgCl2, and 10 mM potassium phosphate, pH 7.2. […] Following an 18-hour incubation, whole-cell [NiFe] hydrogenase activity was monitored by adding benzyl viologen (1 mg/mL) to each well, followed by continuous monitoring of the change in absorbance at 630 nm using a BioTek Synergy H1 microplate reader in an anaerobic glove box.

[2] = test system: K. pneumoniae urease activity (whole cell); assay: microbe, parasite or virus in culture; assay type: cell-based, Klebsiella pneumoniae ATCC 33495; details: artificial urine; for K. pneumoniae urease-dependent pH change (pH): 37 °C
[3] = test system: cellular Ni and Zn content of K. pneumoniae; assay: Cellular metal analysis by ICP-MS (60Ni, 66Zn); assay type: cell-based, Klebsiella pneumoniae
Procedure: The cellular Zn^2+ and Ni^2+ content of K. pneumoniae was carried out according to the method described by Maunders et al.[66] with some modifications. An overnight culture of K. pneumoniae was diluted 1/200 in LB medium (5 mL) and was either untreated or treated with 0.2 mM AMA or Zn-AMA. The cells were grown for 16 h at 37 °C, harvested by centrifugation, and washed twice with PBS containing 5 mM EDTA and twice with ultra-pure water. The cell pellet was subsequently digested in 0.25 mL 65% HNO3 at 80 °C for 30 minutes in borosilicate glass tubes using a water bath. The samples were diluted to 2% HNO3 and filtered through a 0.45 μm syringe filter. ^60Ni and ^66Zn were quantified using a Thermo iCAP Q ICP-MS.

K. pneumoniae [4] = assay type: cell-based, Klebsiella pneumoniae; details: 200 μM, 24 h exposure
S. aureus = assay type: cell-based, Staphylococcus aureus; details: 200 μM, 24 h
[5] = test system: S. aureus urease activity (whole cell); assay type: cell-based, Staphylococcus aureus; details: artificial urine, 24 h; for Staphylococcus aureus urease-dependent pH change (pH): 37 °C
K. pneumoniae [6] = assay type: cell-based, Klebsiella pneumoniae
HEK293 cells = assay: HEK293 cytotoxicity assay (Cell Titer Glo 2.0)
[7] = K. pneumoniae treated with 200 μM

N[C@@H](CN[C@@H](CN[C@@H](CC(=O)O)C(=O)O)C(=O)O)C(=O)O.[Zn+2] [Zn-AMA]
Benzyl viologen hydrogenase assay (activity) ([1]; 1.5625 μM): 9.43 and 9.72
Benzyl viologen hydrogenase assay (activity) ([1]; 3.125 μM): 9.23 and 9.47
Benzyl viologen hydrogenase assay (activity) ([1]; 6.25 μM): 8.98 and 9.82
Benzyl viologen hydrogenase assay (activity) ([1]; 12.5 μM): 9.03 and 8.64
Benzyl viologen hydrogenase assay (activity) ([1]; 25 μM): 7.51 and 6.87
Benzyl viologen hydrogenase assay (activity) ([1]; 50 μM): 5.01 and 4.71
Benzyl viologen hydrogenase assay (activity) ([1]; 100 μM): 2.11
Benzyl viologen hydrogenase assay (activity) ([1]; 200 μM): 0.69 and 0.39
EC50 ([1]; read-out: EC50, Hyd-3 [NiFe]-hydrogenase inhibition, LB-glucose, anaerobic, whole cell, benzyl viologen): 50.8 ± 4.4 µM
K. pneumoniae urease-dependent pH change (pH) ([2]; 0.19 μM, 24 h): 8.14 and 8.10
K. pneumoniae urease-dependent pH change (pH) ([2]; 0.39 μM, 24 h): 8.08 and 8.00
K. pneumoniae urease-dependent pH change (pH) ([2]; 0.78 μM, 24 h): 7.84 and 7.81
K. pneumoniae urease-dependent pH change (pH) ([2]; 1.56 μM, 24 h): 7.60 and 7.55
K. pneumoniae urease-dependent pH change (pH) ([2]; 3.12 μM, 24 h): 7.41 and 7.27
K. pneumoniae urease-dependent pH change (pH) ([2]; 6.25 μM, 24 h): 7.11
K. pneumoniae urease-dependent pH change (pH) ([2]; 12.5 μM, 24 h): 6.87 and 6.85
K. pneumoniae urease-dependent pH change (pH) ([2]; 25 μM, 24 h): 6.76 and 6.71
K. pneumoniae urease-dependent pH change (pH) ([2]; 50 μM, 24 h): 6.66 and 6.60
K. pneumoniae urease-dependent pH change (pH) ([2]; 100 μM, 24 h): 6.65 and 6.54
K. pneumoniae urease-dependent pH change (pH) ([2]; 200 μM, 24 h): 6.80 and 6.56
concentration that significantly suppressed urease activity ([2]; K. pneumoniae, 24 h): 50 µM
EC50 ([2]; Klebsiella pneumoniae, K. pneumoniae, read-out: EC50, half-maximal effective concentration required to suppress urease-dependent pH change): 2.5 ± 0.4 µM
effect on intracellular Ni^2+ levels ([3]; 200 μM, ICP-MS): reduced intracellular Ni^2+ levels
effect on intracellular Zn^2+ levels ([3]; 200 μM, ICP-MS): without affecting Zn^2+ levels
ICP-MS cellular Ni [3, 7]: 2.15 µM and 2.37 µM
ICP-MS cellular Zn [3, 7]: 0.81 µM and 0.97 µM
bacterial viability (spot dilutions) (K. pneumoniae [4]): do not affect bacterial viability
bacterial viability (spot dilutions) (S. aureus): not lethal to bacteria
Staphylococcus aureus urease-dependent pH change (pH) ([5]; 0.19 μM): 7.24 and 7.25
Staphylococcus aureus urease-dependent pH change (pH) ([5]; 0.39 μM): 7.28 and 7.12
Staphylococcus aureus urease-dependent pH change (pH) ([5]; 0.78 μM): 6.95 and 7.00
Staphylococcus aureus urease-dependent pH change (pH) ([5]; 1.56 μM): 6.76 and 6.81
Staphylococcus aureus urease-dependent pH change (pH) ([5]; 3.12 μM): 6.56 and 6.59
Staphylococcus aureus urease-dependent pH change (pH) ([5]; 6.25 μM): 6.45 and 6.49
Staphylococcus aureus urease-dependent pH change (pH) ([5]; 12.5 μM): 6.41 and 6.45
Staphylococcus aureus urease-dependent pH change (pH) ([5]; 25 μM): 6.38 and 6.40
Staphylococcus aureus urease-dependent pH change (pH) ([5]; 50 μM): 6.39 and 6.40
Staphylococcus aureus urease-dependent pH change (pH) ([5]; 100 μM): 6.37 and 6.40
Staphylococcus aureus urease-dependent pH change (pH) ([5]; 200 μM): 6.41 and 6.39
effect on urease activity ([5]; S. aureus): inhibited urease activity similarly
Growth curve (culture density) (K. pneumoniae [6]): 0.101 and 0.102 and 0.103 and 0.104 and 0.105 and 0.107 and 0.106 and 0.108
Growth curve (culture density) (K. pneumoniae [6]; 15.15 h, 50 μM): 0.107 and 0.104
Growth curve (culture density) (K. pneumoniae [6]; 16.15 h, 50 μM): 0.107 and 0.103
Growth curve (culture density) (K. pneumoniae [6]; 17.15 h, 50 μM): 0.107 and 0.102
growth with urea as sole nitrogen source (K. pneumoniae [6]; Chelex-treated nitrogen-limited medium): did not
growth with urea as sole nitrogen source (K. pneumoniae [6]; medium supplemented with 0.25 μM NiCl): inhibited the growth of K. pneumoniae
cytotoxicity toward HEK293 (HEK293 cells; 48 h, up to 512 μg/mL (~1.4 mM)): no significant cytotoxicity
IC50 (HEK293 cells; Homo sapiens, HEK293, 48 h, read-out: IC50 (HEK293 viability)): > 512 µg/mL
HEK 293T cytotoxicity assay raw signal (HEK293 cells; Zn-AMA 0.5 μg/mL): 787289 and 688554 and 688484
HEK 293T cytotoxicity assay raw signal (HEK293 cells; Zn-AMA 1 μg/mL): 778862 and 676746 and 680280
HEK 293T cytotoxicity assay raw signal (HEK293 cells; Zn-AMA 2 μg/mL): 730695 and 661495 and 777158
HEK 293T cytotoxicity assay raw signal (HEK293 cells; Zn-AMA 4 μg/mL): 783723 and 676080 and 794996
HEK 293T cytotoxicity assay raw signal (HEK293 cells; Zn-AMA 8 μg/mL): 742661 and 700936 and 674120
HEK 293T cytotoxicity assay raw signal (HEK293 cells; Zn-AMA 16 μg/mL): 815769 and 690170 and 672316
HEK 293T cytotoxicity assay raw signal (HEK293 cells; Zn-AMA 32 μg/mL): 682089 and 773769 and 699603
HEK 293T cytotoxicity assay raw signal (HEK293 cells; Zn-AMA 64 μg/mL): 773018 and 718789 and 808685
HEK 293T cytotoxicity assay raw signal (HEK293 cells; Zn-AMA 128 μg/mL): 636555 and 716494 and 658016
HEK 293T cytotoxicity assay raw signal (HEK293 cells; Zn-AMA 256 μg/mL): 744022 and 626132 and 622056
HEK 293T cytotoxicity assay raw signal (HEK293 cells; Zn-AMA 512 μg/mL): 618617 and 604431 and 563165
